# Measurements taken from patent publication US7449570B2, “Use of nucleoside compounds for nonsense suppression and the treatment of genetic diseases” (PTC Therapeutics, Inc., priority 2002, dated 2008).
# System: lysosomal tripeptidyl-peptidase 1 (TPP-I)
# Test: not given
# Conditions: patient-derived LINCL cell line, compound heterozygous for Arg208Stop and a different rare nonsense mutation; Sleat et al. 2001; cited from earlier work
row,Compound,normal levels of TPP-I maximally restored
1,gentamicin,approximately 7%

# System: luciferase reporter construct containing a UGA premature termination codon
# Test: cell-based luciferase reporter assay (nonsense suppression)
# Parameters: key: Compounds which were found to have either or both very high potency and very high efficacy of protein synthesis are classified as “***”; Compounds which were found to have significant potency and/or efficacy of protein synthesis were classified as “**”; compounds which were found to have potency and/or efficacy of protein synthesis were classified as “*”
# Conditions: UGA premature termination codon luciferase reporter stably transfected in 293T Human Embryonic Kidney cells; qualitative potency/efficacy of protein synthesis; gentamicin internal standard
# Experimental: Activity measurements in Table 1 were performed in a cell-based luciferase reporter assay (as described in Section 4.2) comprising a luciferase reporter construct containing a UGA premature termination codon that was stably transfected in 293T Human Embryonic Kidney cells. Gentamicin, a small molecule known to allow readthrough of premature termination codons, was used as an internal standard. Activity measurements are based on the qualitative ratio between the minimum concentration of compound required to produce a given protein in a cell versus the amount of protein produced by the cell at that concentration.
# The test compounds identified in the nonsense suppression assay (for convenience referred to herein as a compound of the invention) can be tested for biological activity using host cells containing or engineered to contain the target RNA element coupled to a functional readout system. For example, the lead compound can be tested in a host cell engineered to contain the RNA with the premature translation termination codon controlling the expression of a reporter gene. In this example, the lead compounds are assayed in the presence or absence of the RNA with the premature translation termination codon. Compounds that modulate premature translation termination and/or nonsense-mediated mRNA decay in vivo will result in increased expression of the full-length gene, i.e., past the premature termination codon. Alternatively, a phenotypic or physiological readout can be used to assess activity of the target RNA with the premature translation termination codon in the presence and absence of the lead compound. Both the in vitro and in vivo nonsense suppression assays used herein and as described in International Patent Publication WO 01/44516, which is incorporated by reference herein in its entirety, can be used to identify lead compounds and can also be used to determine an EC50 for the lead compounds.
# A stable cell line harboring the UGA nonsense-containing luciferase gene is treated with a test compound. Cells are grown in standard medium supplemented with 1% penicillin-streptomycin (P/S) and 10% fetal bovine serum (FBS) to 70% confluency and split 1:1 the day before treatment. The next day, cells are trypsinized and 40,000 cells are added to each well of a 96-well tissue culture dish. Serial dilutions of each compound are prepared to generate a six-point dose response curve spanning 2 logs (30 μM to 0.3 μM). The final concentration of the DMSO solvent remains constant at 1% in each well. Cells treated with 1% DMSO serve as the background standard, and cells treated with gentamicin serve as a positive control.
row,Compound,Activity
1,"COC(=O)c1c(N)ncnc1N[C@H]1O[C@H](CO)[C@@H](O)[C@H]1O [Compound 27, Methyl 6-amino-4-(α-D-ribofuranosylamino)pyrimidine-5-carboxylate]",*
2,"Nc1ncnc(N[C@H]2O[C@H](CO)[C@@H](O)[C@H]2O)c1[N+](=O)[O-] [Compound 22, 6-amino-5-nitro-4-(α-D-ribofuranosylamino)-pyrimidine]",***
3,"COC(=O)c1c(Cl)ncnc1N[C@@H]1O[C@H](CO)[C@@H](O)[C@H]1O [Compound 26, Methyl 6-chloro-4-(β-D-ribofuranosylamino)pyrimidine-5-carboxylate]",0
4,"Nc1ncnc(N[C@@H]2O[C@H](COC(=O)c3ccccc3)[C@@H](OC(=O)c3ccccc3)[C@H]2OC(=O)c2ccccc2)c1[N+](=O)[O-] [Compound 24, 6-Amino-5-nitro-4-[(2,3,5-tri-O-benzoyl-β-D-ribofuranosyl)amino]pyrimidine]",**
5,"Nc1ncnc(N[C@@H]2C[C@H](CO)[C@@H](O)[C@H]2O)c1[N+](=O)[O-] [Compound 6, (1R,2S,3R,5R)-3-(6-Amino-5-nitro-pyrimidin-4-ylamino)-5-hydroxymethyl-cyclopentane-1,2-diol]",0
6,"Nc1ncnc(N[C@H]2C[C@@H](CO)[C@H](O)[C@@H]2O)c1[N+](=O)[O-] [Compound 7, (1S,2R,3S,5S)-3-(6-Amino-5-nitro-pyrimidin-4-ylamino)-5-hydroxymethyl-cyclopentane-1,2-diol]",0
